The subject of data set [1] is HCT116 cells. The experiment in a line: MTT cytotoxicity assay, 96 h exposure. The data set is classed as cell-based, human. The settings on record: exposure time 96 h, mean ± SD. The procedure:
(§1) The murine cancer cell line CT26 and the human cancer cell line HCT116 were both obtained from the American Type Culture Collection (ATCC). Both cell lines were grown as adherent monolayer cultures in 75 cm^2 culture flasks in RPMI 1640 medium (supplemented with 2 mM L-glutamine and 1% PenStrep, Gibco^TM) and 10% fetal bovine serum (FBS, Gibco^TM) at 37 °C under a humid atmosphere containing 5% CO2 and 95% air. For splitting, accutase® solution (Sigma Aldrich) was used.
(§2) Cell viability was determined by the colorimetric MTT assay. The cells were seeded in RPMI 1640 medium in a 96-well cell culture plate 24 h prior to treatment at a density of 1.5 × 10^3 (CT26) and 2 × 10^3 (HCT116) cells per well. A stock solution of compounds 3a and 3b was prepared in DMSO and then diluted with RPMI 1640 medium (maximum 0.5% v/v of DMSO per well). After serial dilutions, a 100 µL aliquot was added to each well ([…], 6.25, 3.13 µmol/L per well). […] Optical densities were measured at 490 nm with a Synergy^TM HTX Multi-Mode Reader (BioTek, Winooski, VT, USA), using a reference wavelength of 650 nm to correct for unspecific absorption. Concentration–effect curves were calculated relative to untreated controls. […]
(In general: Formazan colour is commonly taken as a measure of viable cells.)

For data set [2], the system named is CT26 cells. The experiment in a line: MTT cytotoxicity assay, 96 h exposure. The data set is classed as cell-based, murine. Particulars: exposure time 96 h, mean ± SD. Here is the method: as §1, §2
Details of data set [3]: method as in PMID 28848672. Particulars: phase I clinical study; cited from earlier work.

A word on the IC50: it is the concentration at which inhibition is half-maximal. With `[Cl][Ru-]([Cl])([Cl])[Cl].[Na+].c1ccc2[nH]ncc2c1.c1ccc2[nH]ncc2c1` [3a, sodium trans-[tetrachloridobis(indazole)ruthenate(III)]], the IC50 in data set [1] came out at 99.4 ± 14.5 µM; in data set [2], 188 ± 17.8 µM. In addition, the maximum tolerated dose in data set [3] is listed as 625 mg/m^2.
For `[Cl][Ru]([Cl])([Cl])[Cl].[Na+].c1ccc2[nH]ncc2c1.c1ccc2[nH]ncc2c1` [3b, [^103Ru]sodium trans-[tetrachloridobis(indazole)ruthenate(III)]], the figures for the IC50 in data set [1] and in data set [2] were 94.7 ± 11.7 µM and 173 ± 15.1 µM, respectively.

The values are drawn from article PMC10674160, “Synthesis and Preclinical Evaluation of Radiolabeled [^103Ru]BOLD-100” (Pharmaceutics, 2023).
